Measured values: patent publication US20260274867A1, “PYRIDO[4,3-D]PYRIMIDINE DERIVATIVES AS MUTANT KRAS G12C INHIBITORS FOR THE TREATMENT OF CANCER” (Frontier Medicines Corporation, priority 2023, published 2026)

Biological target: T1, KRAS G12C (GMPPNP-loaded, Cys-light, amino acids 1-169) and cRAF Ras-binding domain interaction (Homo sapiens, UniProt P01116, C118S/C51S/C80L/G12C)
T1 construct: truncated version comprising amino acids 1-169
Assay: Inhibition of KRAS G12C and cRAF binding (AlphaScreen)
Details: KRAS G12C preloaded with GMPPNP, 2 hours compound incubation, room temperature
Protocol: The AlphaScreen technology was used to determine IC50s for compound inhibition of KRAS G12C (present as the Cys-light (C51S, C80L and C118S), truncated version comprising amino acids 1-169) and cRAF interaction. Compounds were diluted in 100% DMSO and each compound concentration was spotted at 200 nl/well onto low volume, white 384 well plates. The KRAS G12C contained a biotin-AviTag and the cRaf, as Ras-binding domain (amino acids 50-131, RBD), was GST-tagged. KRAS G12C was preloaded with the GTP analogue Guanosine 5′-[…] (GMPPNP). The KRAS G12C was diluted in 25 mM Hepes, pH 7.4, 150 mM NaCl, 5 mM MgCl2, 0.01% TritonX-100 and 10 μM GMPPNP and added at 10 ul/well to compound-spotted plates resulting in a DMSO concentration of 2%. Plates were incubated for 2 hours. A mixture of RBD and the AlphaScreen streptavidin donor and glutathione acceptor beads diluted in 25 mM Hepes, pH 7.4, 150 mM NaCl, 5 mM MgCl2, 0.01% TritonX-100 and 2% DMSO was then added at 10 ul/well and incubated for 60-90 minutes before the samples were read for emission at 570 nm after excitation of the donor beads at 680 nm. All incubations were performed at room temperature. The final top compound concentration was 50 μM with 1:3 titrations for 10-point dose response curves. Final assay conditions were 0.5 nM KRAS G12C, 0.75 nM RBD and 5 μg/ml each of AlphaScreen donor and acceptor beads. IC50s were determined using nonlinear regression fit of [inhibitor] vs. response (4 parameters).
A counter assay was also set up to rule out inhibitors of the AlphaScreen technology itself. Compound plates were incubated for 2 hours as above with buffer only. The AlphaScreen beads were added as above except biotin-AviTag-GST was substituted for the RBD. Samples were read and analyzed as above.

T1 sequence (P01116 1-169 isoform P01116-2 G12C/C51S/C80L/C118S): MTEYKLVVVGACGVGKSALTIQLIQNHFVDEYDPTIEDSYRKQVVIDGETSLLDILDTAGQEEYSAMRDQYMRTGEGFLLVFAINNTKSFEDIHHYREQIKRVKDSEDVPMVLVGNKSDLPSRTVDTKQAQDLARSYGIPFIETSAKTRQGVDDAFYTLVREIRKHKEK

| IC50 | Compound |
| --- | --- |
| 10 to 100 nM | COC(=O)/C=C(\F)C(=O)N1CCC(N(C)c2nc(OCC34CCCN3CCC4)nc3c2CCN(c2cccc4cccc(Cl)c24)C3)C1 (centres unmarked) [Compound 1] |
| < 10 nM | Cc1nccc(/C=C(\F)C(=O)N2CCN(c3nc(OCC45CCCN4CCC5)nc4c(F)c(-c5cccc6cccc(Cl)c56)ncc34)C[C@@H]2CC#N)n1 [Compound 2] |
| < 10 nM | Cc1nsc(/C=C(\F)C(=O)N2CCN(c3nc(OCC45CCCN4CCC5)nc4c3CCN(c3cccc5ccc(F)c(Cl)c35)C4)C[C@@H]2CC#N)n1 [Compound 3] |
| < 10 nM | CC(C)c1noc(/C=C(\F)C(=O)N2CCN(c3nc(OCC45CCCN4CCC5)nc4c(F)c(-c5cccc6cccc(Cl)c56)ncc34)C[C@@H]2CC#N)n1 [Compound 4] |
| < 10 nM | Cc1nccc(/C=C(\F)C(=O)N2CCN(c3nc(OC[C@@]45CCCN4C[C@H](F)C5)nc4c(F)c(-c5cccc6ccc(F)c(Cl)c56)ncc34)C[C@@H]2CC#N)n1 [Compound 5, 2-((S)-4-(7-(8-chloro-7-fluoronaphthalen-1-yl)-8-fluoro-2-(((2R,7aS)-2-fluorotetrahydro-1H-pyrrolizin-7a(5H)-yl)methoxy)pyrido[4,3-d]pyrimidin-4-yl)-1-((Z)-2-fluoro-3-(2-methylpyrimidin-4-yl)acryloyl)piperazin-2-yl)acetonitrile] |
| < 10 nM | N#CC[C@H]1CN(c2nc(OC[C@@]34CCCN3C[C@H](F)C4)nc3c(F)c(-c4cccc5cccc(Cl)c45)ncc23)CCN1C(=O)/C(F)=C/c1ccnc(C2CC2)n1 [Compound 6] |
| 10 to 100 nM | N#CC[C@H]1CN(c2nc(OC[C@@]34CCCN3C[C@H](F)C4)nc3c(F)c(-c4cccc5ccc(F)c(Cl)c45)ncc23)CCN1C(=O)/C(F)=C\c1ccnc(C2CC2)n1 [Compound 7] |
| 10 to 100 nM | N#CC[C@H]1CN(c2nc(OC[C@@]34CCCN3C[C@H](F)C4)nc3c(F)c(-c4cccc5ccc(F)c(F)c45)ncc23)CCN1C(=O)/C(F)=C\c1ccnc(C2CC2)n1 [Compound 8] |
| < 10 nM | CCc1c(F)ccc2cccc(-c3ncc4c(N5CCN(C(=O)/C(F)=C/c6ccnc(C)n6)[C@@H](CC#N)C5)nc(OC[C@@]56CCCN5C[C@H](F)C6)nc4c3F)c12 [Compound 9, 2-((S)-4-(7-(8-ethyl-7-fluoronaphthalen-1-yl)-8-fluoro-2-(((2R,7aS)-2-fluorotetrahydro-1H-pyrrolizin-7a(5H)-yl)methoxy)pyrido[4,3-d]pyrimidin-4-yl)-1-((Z)-2-fluoro-3-(2-methylpyrimidin-4-yl)acryloyl)piperazin-2-yl)acetonitrile] |
| 100 to 500 nM | CCc1c(F)ccc2cccc(-c3ncc4c(N5CCN(C(=O)/C(F)=C\c6ccnc(C7CC7)n6)[C@@H](CC#N)C5)nc(OC[C@@]56CCCN5C[C@H](F)C6)nc4c3F)c12 [Compound 10] |
| < 10 nM | Cc1nccc(/C=C(\F)C(=O)N2CCN(c3nc(OC[C@@]45CCCN4C[C@H](F)C5)nc4c(F)c(-c5cccc6ccc(F)c(F)c56)ncc34)C[C@@H]2CC#N)n1 [Compound 11, 2-((S)-4-(7-(7,8-difluoronaphthalen-1-yl)-8-fluoro-2-(((2R,7aS)-2-fluorotetrahydro-1H-pyrrolizin-7a(5H)-yl)methoxy)pyrido[4,3-d]pyrimidin-4-yl)-1-((Z)-2-fluoro-3-(2-methylpyrimidin-4-yl)acryloyl)piperazin-2-yl)acetonitrile] |
| ≥ 500 nM | CN1CCC1/C=C(/F)C(=O)N1CCN(c2nc(OC[C@@]34CCCN3C[C@H](F)C4)nc3c(F)c(-c4cccc5ccc(F)c(F)c45)ncc23)C[C@@H]1CC#N (some centres unmarked) [Compound 12] |
| 100 to 500 nM | CN1CC[C@@H]1/C=C(\F)C(=O)N1CC[C@@H](N(C)c2nc(OC[C@@]34CCCN3C[C@H](F)C4)nc3c(F)c(-c4cccc5ccc(F)c(F)c45)ncc23)C1 [Compound 13] |
| 10 to 100 nM | CN1CC[C@@H]1/C=C(/F)C(=O)N1CC[C@@H](N(C)c2nc(OC[C@@]34CCCN3C[C@H](F)C4)nc3c(F)c(-c4cccc5ccc(F)c(F)c45)ncc23)C1 [Compound 14] |
| < 10 nM | CCc1c(F)ccc2cccc(-c3ncc4c(N5CCN(C(=O)/C(F)=C/c6cc(C)nc(C)n6)[C@@H](CC#N)C5)nc(OC[C@@]56CCCN5C[C@H](F)C6)nc4c3F)c12 [Compound 15] |
| 100 to 500 nM | CN1CCC1/C=C(\F)C(=O)N1CCN(c2nc(OC[C@@]34CCCN3C[C@H](F)C4)nc3c(F)c(-c4cccc5ccc(F)c(Cl)c45)ncc23)C[C@@H]1CC#N (stereo partly drawn) [Compound 16, 2-((2S)-4-(7-(8-chloro-7-fluoronaphthalen-1-yl)-8-fluoro-2-(((2R,7aS)-2-fluorotetrahydro-1H-pyrrolizin-7a(5H)-yl)methoxy)pyrido[4,3-d]pyrimidin-4-yl)-1-((Z)-2-fluoro-3-(1-methylazetidin-2-yl)acryloyl)piperazin-2-yl)acetonitrile] |

| IC50 | Compound |
| --- | --- |
| ≥ 500 nM | CN1CCC1/C=C(/F)C(=O)N1CCN(c2nc(OC[C@@]34CCCN3C[C@H](F)C4)nc3c(F)c(-c4cccc5ccc(F)c(Cl)c45)ncc23)C[C@@H]1CC#N (some centres unmarked) [Compound 17] |
| < 10 nM | Cc1nccc(/C=C(\F)C(=O)N2CCN(c3nc(OC[C@@]45CCCN4C[C@H](F)C5)nc4c(F)c(-c5cccc6cccc(Cl)c56)ncc34)C[C@@H]2CC#N)n1 [Compound 18] |
| < 10 nM | Cc1cc(/C=C(\F)C(=O)N2CCN(c3nc(OC[C@@]45CCCN4C[C@H](F)C5)nc4c(F)c(-c5cccc6cccc(F)c56)ncc34)C[C@@H]2CC#N)nc(C)n1 [Compound 19] |
| < 10 nM | Cc1nccc(/C=C(\F)C(=O)N2CCN(c3nc(OC[C@@]45CCCN4C[C@H](F)C5)nc4c(F)c(-c5cccc(Cl)c5C5CC5)ncc34)C[C@@H]2CC#N)n1 [Compound 20] |
| ≥ 500 nM | N#CC[C@H]1CN(c2nc(OC[C@@]34CCCN3C[C@H](F)C4)nc3c(F)c(-c4cccc5cccc(Cl)c45)ncc23)CCN1C(=O)/C(F)=C/CN1[C@@H]2CC[C@H]1COC2 [Compound 21] |
| < 10 nM | Cc1nccc(/C=C(\F)C(=O)N2CCN(c3nc(OC[C@@]45CCCN4C[C@H](F)C5)nc4c(F)c(-c5cccc6ccc(F)c(C)c56)ncc34)C[C@@H]2CC#N)n1 [Compound 22] |
| 10 to 100 nM | Cc1nccc(/C=C(\F)C(=O)N2CCN(c3nc(OC[C@@]45CCCN4C[C@H](F)C5)nc4c(F)c(-c5cccc6c(C)c(F)ccc56)ncc34)C[C@@H]2CC#N)n1 [Compound 23] |
| 100 to 500 nM | N#CC[C@H]1CN(c2nc(OC[C@@]34CCCN3C[C@H](F)C4)nc3c(F)c(-c4cccc5ccc(F)c(F)c45)ncc23)CCN1C(=O)/C(F)=C/CN1CCOCC1 [Compound 24] |
| < 10 nM | Cc1cc(/C=C(\F)C(=O)N2CCN(c3nc(OC[C@@]45CCCN4C[C@H](F)C5)nc4c(F)c(-c5cccc6cccc(Cl)c56)ncc34)C[C@@H]2CC#N)nc(C)n1 [Compound 26] |
| < 10 nM | Cc1cc(/C=C(\F)C(=O)N2CCN(c3nc(OC[C@@]45CCCN4C[C@H](F)C5)nc4c(F)c(-c5cccc6ccc(F)c(F)c56)ncc34)C[C@@H]2CC#N)nc(C)n1 [Compound 27] |
| ≥ 500 nM | N#CC[C@H]1CN(c2nc(OC[C@@]34CCCN3C[C@H](F)C4)nc3c(F)c(-c4cccc5cccc(F)c45)ncc23)CCN1C(=O)/C(F)=C/CN1[C@@H]2CC[C@H]1COC2 [Compound 28] |
| < 10 nM | C#Cc1c(F)ccc2cccc(-c3ncc4c(N5CCN(C(=O)/C(F)=C/c6cc(C)nc(C)n6)[C@@H](CC#N)C5)nc(OC[C@@]56CCCN5C[C@H](F)C6)nc4c3F)c12 [Compound 29, 2-((S)-1-((Z)-3-(2,6-dimethylpyrimidin-4-yl)-2-fluoroacryloyl)-4-(7-(8-ethynyl-7-fluoronaphthalen-1-yl)-8-fluoro-2-(((2R,7aS)-2-fluorotetrahydro-1H-pyrrolizin-7a(5H)-yl)methoxy)pyrido[4,3-d]pyrimidin-4-yl)piperazin-2-yl)acetonitrile] |
| < 10 nM | C#Cc1c(F)ccc2cccc(-c3ncc4c(N5CCN(C(=O)/C(F)=C/c6ccnc(C)n6)[C@@H](CC#N)C5)nc(OC[C@@]56CCCN5C[C@H](F)C6)nc4c3F)c12 [Compound 30] |
| ≥ 500 nM | N#CC[C@H]1CN(c2nc(OC[C@@]34CCCN3C[C@H](F)C4)nc3c(F)c(-c4cccc5ccc(F)c(Cl)c45)ncc23)CCN1C(=O)/C(F)=C/CN1[C@@H]2CC[C@H]1COC2 [Compound 31] |
| < 10 nM | Cc1cc(/C=C(\F)C(=O)N2CCN(c3nc(OC[C@@]45CCCN4C[C@H](F)C5)nc4c(F)c(-c5cccc(Cl)c5C5CC5)ncc34)C[C@@H]2CC#N)nc(C)n1 [Compound 32, 2-((S)-4-(7-(3-chloro-2-cyclopropylphenyl)-8-fluoro-2-(((2R,7aS)-2-fluorotetrahydro-1H-pyrrolizin-7a(5H)-yl)methoxy)pyrido[4,3-d]pyrimidin-4-yl)-1-((Z)-3-(2,6-dimethylpyrimidin-4-yl)-2-fluoroacryloyl)piperazin-2-yl)acetonitrile] |
| < 10 nM | Cc1nccc(/C=C(\F)C(=O)N2CCN(c3nc(OC[C@@]45CCCN4C[C@H](F)C5)nc4c(F)c(-c5cccc6cccc(F)c56)ncc34)C[C@@H]2CC#N)n1 [Compound 33] |
